The assay has as its target ERK2 (Homo sapiens, UniProt P28482). In words: ERK2 inhibition assay (spectrophotometric coupled-enzyme assay). It is filed as biochemical. Here is the method: The IC50 was evaluated from the rate data as a function of inhibitor concentration. […] The compound numbers correspond to the compound numbers in Table 1.
Setting [1] is: read-out: ERK2 Inhibitory Activity (Ki class D-F).

The values that follow come from patent publication US7253187B2, “Heterocyclic inhibitors of ERK2 and uses thereof” (Vertex Pharmaceuticals Incorporated, priority 2001, dated 2007).

SMILES strings stand for the structures. Read-outs that look alike come from different tables or passages of the source.

Chain of ERK2 (P28482 whole entry): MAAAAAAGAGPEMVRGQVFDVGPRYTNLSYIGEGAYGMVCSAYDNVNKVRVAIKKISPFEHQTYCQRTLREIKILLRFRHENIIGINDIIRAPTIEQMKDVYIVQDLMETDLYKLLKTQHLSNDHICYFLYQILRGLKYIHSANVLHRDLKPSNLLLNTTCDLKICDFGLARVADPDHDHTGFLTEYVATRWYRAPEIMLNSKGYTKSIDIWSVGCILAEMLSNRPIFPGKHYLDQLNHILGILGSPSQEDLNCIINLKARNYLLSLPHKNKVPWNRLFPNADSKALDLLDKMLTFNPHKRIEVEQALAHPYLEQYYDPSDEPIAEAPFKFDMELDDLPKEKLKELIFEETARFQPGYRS

For `COCc1cnc(N)nc1-c1c[nH]c(C(=O)N[C@H](CO)c2ccccc2)c1` [III-a-161, 4-(2-Amino-5-methoxymethyl-pyrimidin-4-yl)-1H-pyrrole-2-carboxylic acid (2-hydroxy-1-phenyl-ethyl)-amide], under setting [1], the Ki (usually the equilibrium dissociation constant of an inhibitor or competing ligand from its target) is 100 to 1000 nM. On the same count and under the same terms, under `CCNc1ncc(C)c(-c2c[nH]c(C(=O)NC3CC3)c2)n1` [III-a-114, 4-(2-Ethylamino-5-methyl-pyrimidin-4-yl)-1H-pyrrole-2-carboxylic acid cyclopropylamide] stands above 1000 nM; under `Cc1cnc(Nc2ccccc2)nc1-c1c[nH]c(C(=O)NCCCc2ccccc2)c1` [III-a-112, 4-(5-Methyl-2-phenylamino-pyrimidin-4-yl)-1H-pyrrole-2-carboxylic acid (3-phenyl-propyl)-amide], below 100 nM; under `CCNc1ncc(C)c(-c2c[nH]c(C(=O)NC(CO)c3ccccc3F)c2)n1` (stereo not drawn) [III-a-192, 4-(2-Ethylamino-5-methyl-pyrimidin-4-yl)-1H-pyrrole-2-carboxylic acid [1-(2-fluoro-phenyl)-2-hydroxy-ethyl]-amide], 100 to 1000 nM. On the same count and under the same terms, under `Cc1cnc(NCc2cccnc2)nc1-c1c[nH]c(C(=O)NC(CO)c2ccccc2)c1` (stereo not drawn) [III-a-219, 4-{5-Methyl-2-[(pyridin-3-ylmethyl)-amino]-pyrimidin-4-yl}-1H-pyrrole-2-carboxylic acid (2-hydroxy-1-phenyl-ethyl)-amide] stands below 100 nM; under `CCNc1ncc(C)c(-c2c[nH]c(C(=O)NCC(O)c3ccccc3)c2)n1` (stereo not drawn) [III-a-169, 4-(2-Ethylamino-5-methyl-pyrimidin-4-yl)-1H-pyrrole-2-carboxylic acid (2-hydroxy-2-phenyl-ethyl)-amide], 100 to 1000 nM; under `Cc1cc(Nc2ncc(C)c(-c3c[nH]c(C(=O)NC(CO)c4ccccc4)c3)n2)no1` (stereo not drawn) [III-a-229, 4-[5-Methyl-2-(5-methyl-isoxazol-3-ylamino)-pyrimidin-4-yl]-1H-pyrrole-2-carboxylic acid (2-hydroxy-1-phenyl-ethyl)-amide], 100 to 1000 nM. Still for that read-out and setting: then `CCC(CO)Nc1ncc(C)c(-c2c[nH]c(C(=O)NC(CO)c3cccc(C)c3)c2)n1` (stereo not drawn) [III-a-234, 4-[2-(1-Hydroxymethyl-propylamino)-5-methyl-pyrimidin-4-yl]-1H-pyrrole-2-carboxylic acid (2-hydroxy-1-m-tolyl-ethyl)-amide], with below 100 nM; and `CCN(CC)CCNc1ncc(C)c(-c2c[nH]c(C(=O)NCc3ccc(F)c(F)c3)c2)n1` [III-a-132, 4-[2-(2-Diethylamino-ethylamino)-5-methyl-pyrimidin-4-yl]-1H-pyrrole-2-carboxylic acid 3i4-difluoro-benzylamide], with above 1000 nM.

In the case of `Cc1cnc(Nc2ccon2)nc1-c1c[nH]c(C(=O)NC(CO)c2ccccc2)c1` (stereo not drawn) [III-a-221, 4-[2-(Isoxazol-3-ylamino)-5-methyl-pyrimidin-4-yl]-1H-pyrrole-2-carboxylic acid (2-hydroxy-1-phenyl-ethyl)-amide], the Ki under setting [1] was below 100 nM. `Cc1cnc(N)nc1-c1c[nH]c(C(=O)NCCc2cccnc2)c1` [III-a-107, 4-(2-Amino-5-methyl-pyrimidin-4-yl)-1H-pyrrole-2-carboxylic acid (2-pyridin-3′-yl-ethyl)-amide]: the Ki under setting [1] was above 1000 nM. Consider `COCc1cnc(Nc2ccccc2)nc1-c1c[nH]c(C(=O)NC(CO)c2ccccc2)c1` (stereo not drawn) [III-a-160, 4-(5-Methoxymethyl-2-phenylamino-pyrimidin-4-yl)-1H-pyrrole-2-carboxylic acid (2-hydroxy-1-phenyl-ethyl)-amide], for which the Ki under setting [1] was in the range of 100 to 1000 nM. Still for that read-out and setting: under `Cc1cnc(NN(C)C)nc1-c1c[nH]c(C(=O)N[C@H](CO)c2ccccc2)c1` [III-a-226, 4-[2-(N′,N′-Dimethyl-hydrazino)-5-methyl-pyrimidin-4-yl]-1H-pyrrole-2-carboxylic acid (2-hydroxy-1-(S)-phenyl-ethyl)-amide] stands below 100 nM. Same read-out and setting: under `Cc1cnc(Nc2ccccc2)nc1-c1c[nH]c(C(=O)NCCN)c1` [III-a-120, 4-(5-Methyl-2-phenylamino-pyrimidin-4-yl)-1H-pyrrole-2-carboxylic acid (2-amino-ethyl)-amide] stands 100 to 1000 nM; under `CCOC(=O)NNc1ncc(C)c(-c2c[nH]c(C(=O)N[C@H](CO)c3ccccc3)c2)n1` [III-a-218, N′-{4-[5-(2-Hydroxy-1-phenyl-ethylcarbamoyl)-1H-pyrrol-3-yl]-5-methyl-pyrimidin-2-yl}-hydrazinecarboxylic acid ethyl ester], 100 to 1000 nM. The same measure, in the same setting: then `CCCNc1ncc(C)c(-c2c[nH]c(C(=O)NC(CO)c3ccccc3)c2)n1` (stereo not drawn) [III-a-163, 4-(5-Methyl-2-propylamino-pyrimidin-4-yl)-1H-pyrrole-2-carboxylic acid (2-hydroxy-1-phenyl-ethyl)-amide], with below 100 nM; and `Cc1cnc(NOCC2CC2)nc1-c1c[nH]c(C(=O)NC(CO)c2ccccc2)c1` (stereo not drawn) [III-a-220, 4-(2-Cyclopropylmethoxyamino-5-methyl-pyrimidin-4-yl)-1H-pyrrole-2-carboxylic acid (2-hydroxy-1-phenyl-ethyl)-amide], with below 100 nM. Take `CCNc1ncc(C)c(-c2c[nH]c(C(=O)NC(C(C)=O)c3ccccc3)c2)n1` (stereo not drawn) [III-a-197, 4-(2-Ethylamino-5-methyl-pyrimidin-4-yl)-1H-pyrrole-2-carboxylic acid (2-oxo-1-phenyl-propyl)-amide]: under setting [1], the Ki is above 1000 nM. In the case of `Nc1ncc(-c2cc(F)cc(C(F)(F)F)c2)c(-c2c[nH]c(C(=O)NC(CO)c3ccccc3)c2)n1` (stereo not drawn) [III-a-105, 4-[2-Amino-5-(3-fluoro-5-trifluoromethyl-phenyl)-pyrimidin-4-yl]-1H-pyrrole-2-carboxylic acid (2-hydroxy-1-phenyl-ethyl)-amide], the Ki under setting [1] was in the range of 100 to 1000 nM. Regarding `Cc1cnc(NC(CO)CO)nc1-c1c[nH]c(C(=O)NC(CO)c2ccccc2)c1` (stereo not drawn) [III-a-235, 4-[2-(2-Hydroxy-1-hydroxymethyl-ethylamino)-5-methyl-pyrimidin-4-yl]-1H-pyrrole-2-carboxylic acid (2-hydroxy-1-phenyl-ethyl)-amide], under setting [1], the Ki was below 100 nM.

Turning to `CCNc1ncc(C)c(-c2c[nH]c(C(=O)NC(CO)C(O)c3ccccc3)c2)n1` (stereo not drawn) [III-a-171, 4-(2-Ethylamino-5-methyl-pyrimidin-4-yl)-1H-pyrrole-2-carboxylic acid (2-hydroxy-1-hydroxymethyl-2-phenyl-ethyl)-amide], the Ki under setting [1] was above 1000 nM.

For `CCNc1ncc(C)c(-c2c[nH]c(C(=O)NC(C)C(O)c3ccccc3)c2)n1` (stereo not drawn) [III-a-168, 4-(2-Ethylamino-5-methyl-pyrimidin-4-yl)-1H-pyrrole-2-carboxylic acid (2-hydroxy-1-methyl-2-phenyl-ethyl)-amide], the Ki under setting [1] was above 1000 nM. As to `CCONc1ncc(C)c(-c2c[nH]c(C(=O)N[C@H](CO)c3ccccc3)c2)n1` [III-a-195, 4-(2-Ethoxyamino-5-methyl-pyrimidin-4-yl)-1H-pyrrole-2-carboxylic acid (2-hydroxy-1-phenyl-ethyl)-amide], the Ki under setting [1] was below 100 nM. On the same count and under the same terms, then `Cc1cnc(NC2CC2C)nc1-c1c[nH]c(C(=O)NC(CO)c2ccccc2)c1` (stereo not drawn) [III-a-237, 4-[5-Methyl-2-(2-methyl-cyclopropylamino)-pyrimidin-4-yl]-1H-pyrrole-2-carboxylic acid (2-hydroxy-1-phenyl-ethyl)-amide], with below 100 nM. Same read-out and setting: then `CCCNC(=O)c1cc(-c2nc(Nc3ccccc3)ncc2C)c[nH]1` [III-a-111, 4-(5-Methyl-2-phenylamino-pyrimidin-4-yl)-1H-pyrrole-2-carboxylic acid propylamide], with below 100 nM. Turning to `Cc1cnc(Nc2nc(N3CCCCC3)nc3ccccc23)nc1-c1c[nH]c(C(=O)NCc2ccccc2)c1` [III-a-133, 4-[5-Methyl-2-(2-piperidin-1-yl-quinazolin-4-ylamino)-pyrimidin-4-yl]-1H-pyrrole-2-carboxylic acid benzylamide], for the setting “ERK2 Inhibitory Activity (Ki class D-F)”, the Ki is above 1000 nM.

Turning to `CCC(CO)Nc1ncc(C)c(-c2c[nH]c(C(=O)NC(CO)c3ccccc3)c2)n1` (stereo not drawn) [III-a-236, 4-[2-(1-Hydroxymethyl-propylamino)-5-methyl-pyrimidin-4-yl]-1H-pyrrole-2-carboxylic acid (2-hydroxy-1-phenyl-ethyl)-amide], the Ki under setting [1] was below 100 nM. `CC(C(O)c1ccccc1)N(C)C(=O)c1cc(-c2ccnc(N)n2)c[nH]1` (stereo not drawn) [III-a-180, 4-(2-Amino-pyrimidin-4-yl)-1H-pyrrole-2-carboxylic acid (2-hydroxy-1-methyl-2-phenyl-ethyl)-methyl-amide]: under setting [1], the Ki is above 1000 nM. Still for that read-out and setting: then `CCNc1ncc(C)c(-c2c[nH]c(C(=O)NC(CO)C(O)c3ccccc3)c2)n1` (stereo not drawn) [III-a-170, 4-(2-Ethylamino-5-methyl-pyrimidin-4-yl)-1H-pyrrole-2-carboxylic acid (2-hydroxy-1-hydroxymethyl-2-phenyl-ethyl)-amide], with above 1000 nM; and `O=C(NCc1ccc2c(c1)OCO2)c1cc(-c2nc(Nc3ccccc3)ncc2-c2cc(Cl)cc(Cl)c2)c[nH]1` [III-a-103, 4-[5-(3,5-Dichloro-phenyl)-2-phenylamino-pyrimidin-4-yl]-1H-pyrrole-2-carboxylic acid (benzo[1,3]dioxol-5-ylmethyl)-amide], with above 1000 nM.
